One experiment concerns the target T1, human TLR8 (Homo sapiens, UniProt Q9NR97).
T1 construct: host or cells: HEK-Blue cells
T1 sequence (Q9NR97 27-1041): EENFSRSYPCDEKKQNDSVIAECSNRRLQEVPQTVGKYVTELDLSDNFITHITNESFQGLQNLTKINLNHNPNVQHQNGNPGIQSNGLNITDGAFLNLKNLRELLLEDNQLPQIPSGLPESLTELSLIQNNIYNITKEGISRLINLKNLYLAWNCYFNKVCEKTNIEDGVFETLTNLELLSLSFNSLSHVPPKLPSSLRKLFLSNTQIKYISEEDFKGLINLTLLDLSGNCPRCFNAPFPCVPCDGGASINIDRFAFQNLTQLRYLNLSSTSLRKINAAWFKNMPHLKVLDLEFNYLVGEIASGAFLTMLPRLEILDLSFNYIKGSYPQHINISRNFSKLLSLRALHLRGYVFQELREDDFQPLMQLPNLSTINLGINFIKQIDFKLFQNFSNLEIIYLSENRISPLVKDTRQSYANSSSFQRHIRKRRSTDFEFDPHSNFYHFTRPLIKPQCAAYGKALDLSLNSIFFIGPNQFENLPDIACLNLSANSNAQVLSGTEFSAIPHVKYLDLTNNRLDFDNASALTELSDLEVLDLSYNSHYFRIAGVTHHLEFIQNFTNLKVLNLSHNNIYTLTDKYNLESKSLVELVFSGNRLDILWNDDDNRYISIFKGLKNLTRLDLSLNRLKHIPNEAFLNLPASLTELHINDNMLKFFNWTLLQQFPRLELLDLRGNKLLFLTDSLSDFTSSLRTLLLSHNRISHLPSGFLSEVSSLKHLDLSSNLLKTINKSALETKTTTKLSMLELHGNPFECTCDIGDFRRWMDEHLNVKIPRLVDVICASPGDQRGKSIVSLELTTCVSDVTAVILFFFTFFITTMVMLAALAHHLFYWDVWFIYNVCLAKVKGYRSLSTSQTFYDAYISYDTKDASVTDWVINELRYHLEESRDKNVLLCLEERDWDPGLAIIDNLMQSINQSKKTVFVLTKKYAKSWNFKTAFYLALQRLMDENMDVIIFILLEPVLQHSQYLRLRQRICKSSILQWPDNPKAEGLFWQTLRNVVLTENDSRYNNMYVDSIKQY
The experiment is described as follows: TLR8 inhibition reporter assay (HEK-Blue SEAP). The settings on record: HEK-Blue cells overexpressing human TLR8, R848 15.9 μM, 22 hour incubation. The format is cell-based. The gist of the method:
(§1)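 Dose–response from 0.05 nM to 50 μM was run in HEK-Blue human TLR7, TLR8 and TLR9 reporter cells. After 30 min at room temperature with compound, ligand was added (TLR7 gardiquimod 7.5 μM; TLR8 R848 15.9 μM; TLR9 ODN2006 5 nM) and SEAP measured next day, at 22 h.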

The next experiment deals with T2, human TLR9 (Homo sapiens, UniProt Q9NR96).
T2 construct: host or cells: HEK-Blue cells
T2 sequence (Q9NR96 26-1032): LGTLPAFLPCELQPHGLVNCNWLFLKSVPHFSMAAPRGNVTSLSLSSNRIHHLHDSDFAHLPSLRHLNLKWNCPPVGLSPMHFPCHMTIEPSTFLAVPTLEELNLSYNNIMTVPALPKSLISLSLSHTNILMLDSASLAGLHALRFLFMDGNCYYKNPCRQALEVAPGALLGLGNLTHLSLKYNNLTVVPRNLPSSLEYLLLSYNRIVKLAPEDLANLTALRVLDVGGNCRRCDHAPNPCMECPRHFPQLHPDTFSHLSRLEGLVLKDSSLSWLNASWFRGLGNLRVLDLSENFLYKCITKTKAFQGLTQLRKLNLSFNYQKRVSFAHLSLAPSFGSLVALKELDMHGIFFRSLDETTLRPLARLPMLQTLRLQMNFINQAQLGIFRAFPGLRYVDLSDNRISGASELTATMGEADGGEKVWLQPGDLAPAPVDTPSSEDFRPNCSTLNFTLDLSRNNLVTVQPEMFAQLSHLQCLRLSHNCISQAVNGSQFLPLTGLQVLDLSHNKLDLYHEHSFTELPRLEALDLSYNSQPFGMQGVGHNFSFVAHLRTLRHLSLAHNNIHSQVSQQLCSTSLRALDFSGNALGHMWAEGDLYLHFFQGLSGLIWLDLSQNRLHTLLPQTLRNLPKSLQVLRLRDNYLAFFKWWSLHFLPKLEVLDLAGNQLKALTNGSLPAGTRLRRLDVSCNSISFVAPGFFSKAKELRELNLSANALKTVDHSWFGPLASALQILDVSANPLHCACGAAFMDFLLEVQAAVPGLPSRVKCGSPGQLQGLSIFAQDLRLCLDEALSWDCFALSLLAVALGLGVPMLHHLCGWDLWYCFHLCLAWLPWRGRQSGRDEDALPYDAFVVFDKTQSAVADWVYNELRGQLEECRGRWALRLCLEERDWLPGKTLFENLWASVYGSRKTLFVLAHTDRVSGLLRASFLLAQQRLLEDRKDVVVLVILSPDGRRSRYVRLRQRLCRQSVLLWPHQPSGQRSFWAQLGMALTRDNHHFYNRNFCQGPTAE
The experiment in a line: TLR9 inhibition reporter assay (HEK-Blue SEAP). The format is cell-based. Particulars: HEK-Blue cells overexpressing human TLR9, ODN2006 5 nM, 22 hour incubation. The gist of the method: as §1
Background: A reporter such as luciferase makes a cellular process visible.

The term IC50 denotes the concentration needed to halve the response being measured. The low end stands for greater potency, the high end for weaker potency. `COc1cc(-c2cc3[nH]c(=O)n([C@@H]4CCCN(CC5CC5)C4)c3cc2C)cn2ncnc12` [Example 55, (R)-1-(1-(cyclopropylmethyl)piperidin-3-yl)-5-(8-methoxy-[1,2,4]triazolo[1,5-a]pyridin-6-yl)-6-methyl-1,3-dihydro-2H-benzo[d]imidazol-2-one]: the results for the IC50 against human TLR8 and against human TLR9 were 0.0195 µM and 5.55 µM, respectively.
With `COc1cc(-c2cc3[nH]c(=O)n([C@@H]4CCCN(CC(C)C)C4)c3cc2C)cn2ncnc12` [Example 56, (R)-1-(1-isobutylpiperidin-3-yl)-5-(8-methoxy-[1,2,4]triazolo[1,5-a]pyridin-6-yl)-6-methyl-1,3-dihydro-2H-benzo[d]imidazol-2-one], the IC50 amounted to 0.0112 µM at human TLR8 and 4.81 µM against human TLR9.
On to `COc1cc(-c2cc3[nH]c(=O)n([C@H]4CC[C@@H](NC5CCC5)CC4)c3cc2C)cn2ncnc12` [Example 58, 1-((1s,4s)-4-(cyclobutylamino)cyclohexyl)-5-(8-methoxy-[1,2,4]triazolo[1,5-a]pyridin-6-yl)-6-methyl-1,3-dihydro-2H-benzo[d]imidazol-2-one], for which the IC50 on human TLR8 stood at 0.0052 µM; against human TLR9 it was 4.12 µM.
As to `COc1cc(-c2ccc3c(c2)[nH]c(=O)n3C2CCN(C3CCC3)CC2)cn2ncnc12` [Example 83, 1-(1-cyclobutylpiperidin-4-yl)-5-(8-methoxy-[1,2,4]triazolo[1,5-a]pyridin-6-yl)-1,3-dihydro-2H-benzo[d]imidazol-2-one], the IC50 came out at 1.26 µM on human TLR8 and 5.37 µM on human TLR9.
For `CCN[C@H]1CC[C@@H](n2c(=O)[nH]c3cc(-c4cc(OC)c5ncnn5c4)c(C)cc32)CC1` [Example 63, 1-((1s,4s)-4-(ethylamino)cyclohexyl)-5-(8-methoxy-[1,2,4]triazolo[1,5-a]pyridin-6-yl)-6-methyl-1,3-dihydro-2H-benzo[d]imidazol-2-one], the IC50 at human TLR8 amounted to 0.0215 µM; on human TLR9 it was 10 µM.
The corresponding values for `COc1cc(-c2cc3[nH]c(=O)n([C@@H]4CCCN(C(C)C)C4)c3cc2C)cn2ncnc12` [Example 53, (R)-1-(1-isopropylpiperidin-3-yl)-5-(8-methoxy-[1,2,4]triazolo[1,5-a]pyridin-6-yl)-6-methyl-1,3-dihydro-2H-benzo[d]imidazol-2-one] are 0.0359 µM and 3.75 µM.
In the case of `Cc1cc2c(cc1-c1cc(C)c3ncnn3c1)[nH]c(=O)n2[C@@H]1CCCN(CC2CC2)C1` [Example 37, (R)-1-(1-(cyclopropylmethyl)piperidin-3-yl)-6-methyl-5-(8-methyl-[1,2,4]triazolo[1,5-a]pyridin-6-yl)-1,3-dihydro-2H-benzo[d]imidazol-2-one], the values for the IC50 against human TLR8 and against human TLR9 were 0.0287 µM and 10.1 µM, respectively.
The corresponding values for `COc1cc(-c2cc3[nH]c(=O)n([C@H]4CC[C@@H](N(C)C(C)C)CC4)c3cc2C)cn2ncnc12` [Example 84, 1-((1s,4s)-4-(isopropyl(methyl)amino)cyclohexyl)-5-(8-methoxy-[1,2,4]triazolo[1,5-a]pyridin-6-yl)-6-methyl-1,3-dihydro-2H-benzo[d]imidazol-2-one] are 0.00969 µM and 4.78 µM.
The corresponding values for `CNC(=O)CN1CCC(n2c(=O)[nH]c3cc(-c4cc(OC)c5ncnn5c4)c(C)cc32)CC1` [Example 87, 2-(4-(5-(8-methoxy-[1,2,4]triazolo[1,5-a]pyridin-6-yl)-6-methyl-2-oxo-2,3-dihydro-1H-benzo[d]imidazol-1-yl)piperidin-1-yl)-N-methylacetamide] are 0.377 µM and 22.4 µM.
`COc1cc(-c2ccc3c(c2)[nH]c(=O)n3C2CCN(C3CCOC3)CC2)cn2ncnc12` (stereo not shown) [Example 81, 5-(8-methoxy-[1,2,4]triazolo[1,5-a]pyridin-6-yl)-1-(1-(tetrahydrofuran-3-yl)piperidin-4-yl)-1,3-dihydro-2H-benzo[d]imidazol-2-one]: the IC50 against human TLR8 was > 3.13 µM; against human TLR9, 3.88 µM.
Turning to `COc1cc(-c2cc3[nH]c(=O)n([C@H]4CC[C@@H](N(C)C5CCOCC5)CC4)c3cc2C)cn2ncnc12` [Example 85, 5-(8-methoxy-[1,2,4]triazolo[1,5-a]pyridin-6-yl)-6-methyl-1-((1s,4s)-4-(methyl(tetrahydro-2H-pyran-4-yl)amino)cyclohexyl)-1,3-dihydro-2H-benzo[d]imidazol-2-one], the IC50 against human TLR8 stood at 0.00714 µM; against human TLR9 it was 7.94 µM.
For `Cc1cc2c(cc1-c1cc(C)c3ncnn3c1)[nH]c(=O)n2[C@@H]1CCCN(CCC(C)(C)C)C1` [Example 44, (R)-1-(1-(3,3-dimethylbutyl)piperidin-3-yl)-6-methyl-5-(8-methyl-[1,2,4]triazolo[1,5-a]pyridin-6-yl)-1,3-dihydro-2H-benzo[d]imidazol-2-one], the values for the IC50 against human TLR8 and against human TLR9 were 0.049 µM and 4.72 µM, respectively.
The corresponding values for `COc1cc(-c2cc3[nH]c(=O)n([C@@H]4CCCN(C5CCC5)C4)c3cc2C)cn2ncnc12` [Example 69, (R)-1-(1-cyclobutylpiperidin-3-yl)-5-(8-methoxy-[1,2,4]triazolo[1,5-a]pyridin-6-yl)-6-methyl-1,3-dihydro-2H-benzo[d]imidazol-2-one] are 0.11 µM and 19.3 µM.
As to `Cc1cc(-c2ccc3c(c2)[nH]c(=O)n3C2CCN(CC(=O)N(C)C)CC2)cn2ncnc12` [Example 90, N,N-dimethyl-2-(4-(5-(8-methyl-[1,2,4]triazolo[1,5-a]pyridin-6-yl)-2-oxo-2,3-dihydro-1H-benzo[d]imidazol-1-yl)piperidin-1-yl)acetamide], the IC50 against human TLR8 was > 3.13 µM; on human TLR9, 14.6 µM.
As for `COc1cc(-c2cc3[nH]c(=O)n([C@H]4CC[C@@H](NC(C)C)CC4)c3cc2C)cn2ncnc12` [Example 50, 1-((1s,4s)-4-(isopropylamino)cyclohexyl)-5-(8-methoxy-[1,2,4]triazolo[1,5-a]pyridin-6-yl)-6-methyl-1,3-dihydro-2H-benzo[d]imidazol-2-one], the IC50 was 0.00486 µM at human TLR8 and 10.9 µM against human TLR9.
On to `CCC(CC)CN1CCC[C@@H](n2c(=O)[nH]c3cc(-c4cc(C)c5ncnn5c4)c(C)cc32)C1` [Example 45, (R)-1-(1-(2-ethylbutyl)piperidin-3-yl)-6-methyl-5-(8-methyl-[1,2,4]triazolo[1,5-a]pyridin-6-yl)-1,3-dihydro-2H-benzo[d]imidazol-2-one], for which the figures for the IC50 on human TLR8 and against human TLR9 were 0.0481 µM and 3.03 µM, respectively.
`COc1cc(-c2cc3[nH]c(=O)n([C@H]4CC[C@@H](NC5CCOCC5)CC4)c3cc2C)cn2ncnc12` [Example 49, 5-(8-methoxy-[1,2,4]triazolo[1,5-a]pyridin-6-yl)-6-methyl-1-((1s,4s)-4-((tetrahydro-2H-pyran-4-yl)amino)cyclohexyl)-1,3-dihydro-2H-benzo[d]imidazol-2-one]: the results for the IC50 against human TLR8 and against human TLR9 were 0.00326 µM and 7.43 µM, respectively.

(Values after patent publication US12187723B2 (BRISTOL-MYERS SQUIBB COMPANY, priority 2019, dated 2025).)
